The values that follow come from patent US20210403435A1, “HERBICIDAL COMPOUNDS” (SYNGENTA CROP PROTECTION AG, priority 2018, published 2021).

Experiment in all cases: Post-emergence efficacy, glasshouse, evaluated after 13 days
Type in all cases: in vivo

The test system of one assay is Eleusine indica (ELEIN). The settings on record: Eleusine indica, 312 h; post-emergence application, 500 g/Ha, evaluated after 13 days; read-out: Control of weed species ELEIN (100=total damage to plant; 0=no damage to plant). In outline: (§1)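 Post-emergence spray on 14-day-old potted plants; glasshouse 24/16 °C, 14 h light, 65% RH, watered twice daily. Spray: IF50/acetone formulation diluted with 0.25% or 1% Empicol ESC70 + 1% ammonium sulphate. Visual damage at 13 days, 0 = none, 100 = total.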

A further assay deals with Lolium perenne (LOLPE). Conditions: Lolium perenne, 312 h; post-emergence application, 500 g/Ha, evaluated after 13 days; read-out: Control of weed species LOLPE (100=total damage to plant; 0=no damage to plant). In outline:
as §1

Assay [1] deals with Amaranthus palmeri (AMAPA). Conditions: Amaranthus palmeri, 312 h; post-emergence application, 500 g/Ha, evaluated after 13 days; read-out: Control of weed species AMAPA (100=total damage to plant; 0=no damage to plant). In outline: as §1
The next assay concerns Setaria faberi (SETFA). The settings on record: Setaria faberi, 312 h; post-emergence application, 500 g/Ha, evaluated after 13 days; read-out: Control of weed species SETFA (100=total damage to plant; 0=no damage to plant). Summed up:
as §1

Assay [2] has as its system Euphorbia heterophylla (EPHHL). Conditions: Euphorbia heterophylla, 312 h; post-emergence application, 500 g/Ha, evaluated after 13 days; read-out: Control of weed species EPHHL (100=total damage to plant; 0=no damage to plant). Summed up: as §1
Assay [3] relates to Ipomoea hederacea (IPOHE). Conditions: Ipomoea hederacea, 312 h; post-emergence application, 500 g/Ha, evaluated after 13 days; read-out: Control of weed species IPOHE (100=total damage to plant; 0=no damage to plant). Summed up:
as §1

Assay [4] concerns Digitaria sanguinalis (DIGSA). Conditions: Digitaria sanguinalis, 312 h; post-emergence application, 500 g/Ha, evaluated after 13 days; read-out: Control of weed species DIGSA (100=total damage to plant; 0=no damage to plant). Summed up:
as §1

Assay [5] concerns Echinochloa crus-galli (ECHCG). Conditions: Echinochloa crus-galli, 312 h; post-emergence application, 500 g/Ha, evaluated after 13 days; read-out: Control of weed species ECHCG (100=total damage to plant; 0=no damage to plant). In outline:
as §1

Assay [6] has as its system Chenopodium album (CHEAL). The settings on record: Chenopodium album, 312 h; post-emergence application, 500 g/Ha, evaluated after 13 days; read-out: Control of weed species CHEAL (100=total damage to plant; 0=no damage to plant). Summed up:
as §1

In the case of `C#CCCNC(=O)c1cc[n+](CCC(=O)O)nc1` [Compound A114], the pest or weed control at 500 g/ha worked out at 100% with Eleusine indica (ELEIN); 80% in the assay on Lolium perenne (LOLPE); 100% in [1]; 100% in the assay with Setaria faberi (SETFA); 80% in assay [2]; 60% in assay [3]. Also, the values for the pest or weed control at 500 g/ha in assay [4], in assay [5] and in [6] were 100%, 90% and 90%, respectively.

As to `CC(CS(C)(=O)=O)NC(=O)c1cc[n+](CCC(=O)O)nc1` (stereo not drawn) [Compound A122], the pest or weed control at 500 g/ha worked out at 70% with Eleusine indica (ELEIN); 60% in the assay with Lolium perenne (LOLPE); 100% in [1]; 60% with Setaria faberi (SETFA); 70% in assay [2]; 60% in assay [3]. The values for the pest or weed control at 500 g/ha in assay [4], in [5] and in assay [6] were 100%, 90% and 90%, respectively.

For `CC(O)CCNC(=O)c1cc[n+](CCC(=O)O)nc1` (stereo not drawn) [Compound A127], the pest or weed control at 500 g/ha in the assay on Eleusine indica (ELEIN) was 100%; with Lolium perenne (LOLPE), 80%; in [1], 100%; in the assay on Setaria faberi (SETFA) it was 100%; in [2], 70%; in assay [3], 30%. The results for the pest or weed control at 500 g/ha in assay [4], in [5] and in assay [6] were 100%, 50% and 80%, respectively.

Turning to `CNC(=O)c1cc[n+](CCCS(=O)(=O)[O-])nc1` [Compound A11], the pest or weed control at 500 g/ha in the assay with Eleusine indica (ELEIN) is 10%; in the assay on Lolium perenne (LOLPE), 30%; in assay [1], 40%; with Setaria faberi (SETFA), 20%; in assay [2], 70%; in assay [3] it was 30%. Moreover, the pest or weed control at 500 g/ha in assay [4] amounted to 70%; in assay [5], 70%; in assay [6], 80%.

For the compound `O=C(O)CC[n+]1ccc(C(=O)Nc2nccs2)cn1` [Compound A102], the pest or weed control at 500 g/ha with Eleusine indica (ELEIN) stood at 0%; in the assay with Lolium perenne (LOLPE), 0%; in assay [1], 100%; with Setaria faberi (SETFA) it was 10%; in assay [2] it was 20%; in assay [3] it was 20%. Also, the values for the pest or weed control at 500 g/ha in [4], in assay [5] and in assay [6] were 0%, 0% and 60%, respectively.

As to `CCNC(=O)c1cc[n+](C(C)(C)CC(=O)O)nc1` [Compound A71], the pest or weed control at 500 g/ha worked out at 30% in the assay with Eleusine indica (ELEIN); 30% in the assay on Lolium perenne (LOLPE); 100% in assay [1]; 30% in the assay on Setaria faberi (SETFA); 20% in [2]; 60% in [3]. Further, the pest or weed control at 500 g/ha in assay [4] worked out at 60%; in assay [5], 30%; in assay [6] it was 70%.

Turning to `CC(C)N(C(=O)c1cc[n+](CCC(=O)O)nc1)C(C)C` [Compound A32], the pest or weed control at 500 g/ha came to 10% in the assay on Eleusine indica (ELEIN); 10% with Lolium perenne (LOLPE); 50% in [1]; 30% in the assay with Setaria faberi (SETFA); 40% in assay [2]; 10% in assay [3]. Besides, the results for the pest or weed control at 500 g/ha in assay [4], in assay [5] and in assay [6] were 20%, 30% and 20%, respectively.
